The values that follow come from patent EP0207453B1 (priority 1985, dated 1987).

In brackets after ≈: the same amount, converted by molar mass.

This experiment deals with Polio 2. Description: microbe, parasite or virus in culture. Conditions: HeLa, read-out: MIC (Polio 2). The class given is cell-based, polioviruses.
In the case of `Cc1cc(CCCCCOc2c(Cl)cc(-c3cccs3)cc2Cl)on1` [Example 1(c), 5-{5-[2,6-Dichloro-4-(2-thienyl)phenoxy]pentyl}-3-methylisoxazole], the MIC amounted to 2.5 µg/mL (≈ 6.31 µM).
`Cc1cc(CCCCCOc2c(Cl)cc(-c3nnn(C)n3)cc2Cl)on1` [23 (1st compd.), 5-{5-[2,6-dichloro-4-(2-methyl-2H-tetrazol-5-yl)phenoxy]pentyl}-3-methylisoxazole]: the MIC was 2.9 µg/mL (≈ 7.32 µM).
The value for `Cc1cc(CCCCCOc2ccc(-c3cccs3)cc2)on1` [Example 2, 3-Methyl-5-{5-(4-(2-thienyl)phenoxy]pentyl}-isoxazole] was 0.02 µg/mL (≈ 0.0611 µM).
Take `Cc1cc(CCCCCOc2ccc(-c3nc4ccccc4o3)cc2)on1` [Example 6, 5-{5-[4-(2-Benzoxazolyl)phenoxy]pentyl}-3-methylisoxazole]: the MIC came to 0.9 µg/mL (≈ 2.48 µM).
In the case of `Cc1cc(CCCCCOc2c(Cl)cc(-c3ccc(C)s3)cc2Cl)on1` [10(b), 5-{5-[2,6-Dichloro-4-(5-methyl-2-thienyl)phenoxy]pentyl}-3-methylisoxazole], the MIC is 4.4 µg/mL (≈ 10.7 µM).
For `Cc1cc(CCCCCOc2ccc(-c3nc(C)c(C)s3)cc2)on1` [Example 3, 3-Methyl-5-{5-[4-(4,5-dimethyl-2-thiazolyl)phenoxy]-pentyl}isoxazole], the MIC worked out at 1 µg/mL (≈ 2.81 µM).
Regarding `Cc1cc(CCCCCOc2ccc(-c3nccs3)cc2)on1` [Example 20, 3-Methyl-5-{5-[4-(2-thiazolyl)phenoxy]pentyl}-isoxazole], the MIC was 0.06 µg/mL (≈ 0.183 µM).
